Measurements published in patent US20100267561A1, “HERBICIDAL PYRIDAZINONE DERIVATIVES” (priority 2007, published 2010).

Legend:
Type in all cases: in vivo
[1] = tested on: windgrass (Apera spica-venti); test: Test C pre-/postemergence plant response; conditions: Preemergence
Outline: (§1)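 Application timings covered preemergence and postemergence (1- to 4-leaf plants, 2 to 18 cm), using a non-phytotoxic solvent mixture that included a surfactant. Controlled-environment holding lasted 15 to 25 days before visual scoring, where 100 denotes complete control and 0 no effect.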

[2] = tested on: winter barley (Hordeum vulgare); test: Test C pre-/postemergence plant response; conditions: Preemergence
Outline: as §1

[3] = tested on: spring wheat (Triticum aestivum); test: Test C pre-/postemergence plant response; conditions: Preemergence
Outline: as §1

canola (Brassica rapa) = test: Test C pre-/postemergence plant response; conditions: Preemergence
Outline: as §1

[4] = tested on: pitted morningglory (Ipomoea lacunosa); test: Test E pre-/postemergence plant response; conditions: scale 0 to 100
Outline: (§2)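 Ratings of 0 (no effect) through 100 (complete control) came from visual evaluation against untreated plants after a 14- to 21-day greenhouse period. Compound in a non-phytotoxic solvent/surfactant mixture was applied preemergence to seeds and postemergence to plants at the 1- to 4-leaf stage.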

[5] = tested on: johnsongrass (Sorghum halepense); test: Test E pre-/postemergence plant response; conditions: scale 0 to 100
Outline: as §2

[6] = tested on: Italian ryegrass (Lolium multiflorum); test: Test E pre-/postemergence plant response; conditions: scale 0 to 100
Outline: as §2

[7] = tested on: annual bluegrass (Poa annua); test: Test E pre-/postemergence plant response; conditions: scale 0 to 100
Outline: as §2

[8] = tested on: naked crabgrass (Digitaria nuda); test: Test E pre-/postemergence plant response; conditions: scale 0 to 100
Outline: as §2

[9] = tested on: barnyardgrass (Echinochloa crus-galli); test: Test E pre-/postemergence plant response; conditions: scale 0 to 100
Outline: as §2

[10] = tested on: common chickweed (Stellaria media); test: Test E pre-/postemergence plant response; conditions: 16 g ai/ha, Preemergence, scale 0 to 100
Outline: as §2

[11] = tested on: southern (S.) sandbur (Cenchrus echinatus); test: Test E pre-/postemergence plant response; conditions: scale 0 to 100
Outline: as §2

[12] = tested on: common groundsel (Senecio vulgaris); test: Test E pre-/postemergence plant response; conditions: scale 0 to 100
Outline: as §2

[13] = 8 g ai/ha, scale 0 to 100 (0 no effect, 100 complete control)
[14] = 16 g ai/ha, scale 0 to 100 (0 no effect, 100 complete control)
[15] = 31 g ai/ha, scale 0 to 100 (0 no effect, 100 complete control)
[16] = 62 g ai/ha, scale 0 to 100, 0 no effect, 100 complete control

Compound: Cc1cc(-c2ccc(Cl)cc2)nn1-c1c(OC(=O)C(C)C)cnn(C)c1=O [Compound 34]
- Plant response rating, Windgrass [1, 13]: 0
- Plant response rating, Windgrass [1, 14]: 0
- Plant response rating, Windgrass [1, 15]: 20
- Plant response rating, Windgrass [1, 16]: 60
- Plant response rating, Barley, Winter [2, 13]: 0
- Plant response rating, Barley, Winter [2, 14]: 0
- Plant response rating, Barley, Winter [2, 15]: 10
- Plant response rating, Barley, Winter [2, 16]: 35
- Plant response rating, Wheat, Spring [3, 13]: 0
- Plant response rating, Wheat, Spring [3, 14]: 0
- Plant response rating, Wheat, Spring [3, 15]: 50
- Plant response rating, Wheat, Spring [3, 16]: 90
- Plant response rating, Canola (canola (Brassica rapa); [13]): 0
- Plant response rating, Canola (canola (Brassica rapa); [14]): 0
- Plant response rating, Canola (canola (Brassica rapa); [15]): 0
- Plant response rating, Canola (canola (Brassica rapa); [16]): 0
- Plant response rating, Morningglory ([4]; 16 g ai/ha, Preemergence): 0
- Plant response rating, Morningglory ([4]; 31 g ai/ha, Preemergence): 0
- Plant response rating, Morningglory ([4]; 62 g ai/ha, Preemergence): 0
- Plant response rating, Morningglory ([4]; Postemergence, 8 g ai/ha): 0
- Plant response rating, Morningglory ([4]; Postemergence, 16 g ai/ha): 0
- Plant response rating, Morningglory ([4]; Postemergence, 31 g ai/ha): 0
- Plant response rating, Morningglory ([4]; Postemergence, 62 g ai/ha): 30
- Plant response rating, Johnsongrass ([5]; 16 g ai/ha, Preemergence): 50
- Plant response rating, Johnsongrass ([5]; 31 g ai/ha, Preemergence): 90
- Plant response rating, Johnsongrass ([5]; 62 g ai/ha, Preemergence): 90
- Plant response rating, Johnsongrass ([5]; Postemergence, 8 g ai/ha): 10
- Plant response rating, Johnsongrass ([5]; Postemergence, 16 g ai/ha): 80
- Plant response rating, Johnsongrass ([5]; Postemergence, 31 g ai/ha): 98
- Plant response rating, Johnsongrass ([5]; Postemergence, 62 g ai/ha): 100
- Plant response rating, Ryegrass, Italian ([6]; 16 g ai/ha, Preemergence): 80
- Plant response rating, Ryegrass, Italian ([6]; 31 g ai/ha, Preemergence): 100
- Plant response rating, Ryegrass, Italian ([6]; 62 g ai/ha, Preemergence): 100
- Plant response rating, Ryegrass, Italian ([6]; Postemergence, 8 g ai/ha): 60
- Plant response rating, Ryegrass, Italian ([6]; Postemergence, 16 g ai/ha): 95
- Plant response rating, Ryegrass, Italian ([6]; Postemergence, 31 g ai/ha): 100
- Plant response rating, Ryegrass, Italian ([6]; Postemergence, 62 g ai/ha): 100
- Plant response rating, Bluegrass ([7]; 16 g ai/ha, Preemergence): 0
- Plant response rating, Bluegrass ([7]; 31 g ai/ha, Preemergence): 0
- Plant response rating, Bluegrass ([7]; 62 g ai/ha, Preemergence): 15
- Plant response rating, Bluegrass ([7]; Postemergence, 8 g ai/ha): 0
- Plant response rating, Bluegrass ([7]; Postemergence, 16 g ai/ha): 0
- Plant response rating, Bluegrass ([7]; Postemergence, 31 g ai/ha): 0
- Plant response rating, Bluegrass ([7]; Postemergence, 62 g ai/ha): 0
- Plant response rating, Crabgrass, Naked ([8]; 16 g ai/ha, Preemergence): 100
- Plant response rating, Crabgrass, Naked ([8]; 31 g ai/ha, Preemergence): 100
- Plant response rating, Crabgrass, Naked ([8]; 62 g ai/ha, Preemergence): 100
- Plant response rating, Crabgrass, Naked ([8]; Postemergence, 8 g ai/ha): 40
- Plant response rating, Crabgrass, Naked ([8]; Postemergence, 16 g ai/ha): 80
- Plant response rating, Crabgrass, Naked ([8]; Postemergence, 62 g ai/ha): 100
- Plant response rating, Barnyardgrass ([9]; 16 g ai/ha, Preemergence): 80
- Plant response rating, Barnyardgrass ([9]; 31 g ai/ha, Preemergence): 100
- Plant response rating, Barnyardgrass ([9]; 62 g ai/ha, Preemergence): 100
- Plant response rating, Barnyardgrass ([9]; Postemergence, 8 g ai/ha): 95
- Plant response rating, Barnyardgrass ([9]; Postemergence, 16 g ai/ha): 100
- Plant response rating, Barnyardgrass ([9]; Postemergence, 31 g ai/ha): 100
- Plant response rating, Barnyardgrass ([9]; Postemergence, 62 g ai/ha): 100
- Plant response rating, Chickweed [10]: 0
- Plant response rating, Sandbur, S. ([11]; 16 g ai/ha, Preemergence): 75
- Plant response rating, Sandbur, S. ([11]; 31 g ai/ha, Preemergence): 90
- Plant response rating, Sandbur, S. ([11]; 62 g ai/ha, Preemergence): 100
- Plant response rating, Sandbur, S. ([11]; Postemergence, 8 g ai/ha): 75
- Plant response rating, Sandbur, S. ([11]; Postemergence, 16 g ai/ha): 75
- Plant response rating, Sandbur, S. ([11]; Postemergence, 31 g ai/ha): 90
- Plant response rating, Sandbur, S. ([11]; Postemergence, 62 g ai/ha): 100
- Plant response rating, Groundsel ([12]; 16 g ai/ha, Preemergence): 0
- Plant response rating, Groundsel ([12]; 31 g ai/ha, Preemergence): 0
- Plant response rating, Groundsel ([12]; 62 g ai/ha, Preemergence): 0
- Plant response rating, Groundsel ([12]; Postemergence, 8 g ai/ha): 0
- Plant response rating, Groundsel ([12]; Postemergence, 16 g ai/ha): 0
- Plant response rating, Groundsel ([12]; Postemergence, 31 g ai/ha): 0
- Plant response rating, Groundsel ([12]; Postemergence, 62 g ai/ha): 0
